Experimental data published in patent publication US20020156010A1 (priority 2000, published 2002).

Assays:
[1] = children with obesity secondary to cranial insult and insulin hypersecretion; cited from earlier work
[2] = molecular target: somatostatin receptor-5 (SSTR5) (Homo sapiens, UniProt P35346); details: on the β-cell; cited from earlier work
[3] = Fasting leptin and IGF-1 (RIA), octreotide-LAR 24 weeks; type: in vivo, human; details: Week 24-Week 0; High Responders (n = 8)
[4] = long-term usage, acromegaly or other disorders; cited from earlier work
[5] = Safety: blood pressure, glucose (FBG, CBG, HbA1c, IGT), TSH, free T4, lipids, adverse events, octreotide-LAR 24 weeks
Method: Inclusion criteria were ages 18-65 years and body mass index (BMI)≧35. The screening evaluation included a complete history and physical examination, and the following studies: Comprehensive Metabolic Panel (CMP), serum glucose 2 hours after an 75 gm oral glucose load, gallbladder ultrasound, and urine pregnancy test (if female). Exclusion criteria included gallstones, hypertension, diabetes mellitus (by ADA criteria), renal or liver disease, or use of chronic medications except for thyroid or estrogen supplementation. Subjects were evaluated every four weeks for 24 weeks. […]
Chemical Analyses: Serum glucose during OGTT was measured by the glucose oxidase method (Kadish, et al., “A new and rapid method for the determination of glucose by measurement of rate of oxygen consumption,” Clin Chem, 14:116-119 (1968), which is hereby incorporated by reference in its entirety). Serum immunoreactive insulin (μU/ml) and C-peptide (ng/ml) levels from each OGTT sample were measured by standard double-antibody radioimmunoassay (RIA) (Linco Research; St Louis, Mo.). Leptin was measured by double antibody RIA, and IGF-1 by competitive binding RIA (Endocrine Sciences; Calabasas Hills, Calif.). […]

[6] = tested on: early phase of insulin secretion; details: dose-dependent; cited from earlier work

Sequence of somatostatin receptor-5 (SSTR5) (P35346 whole entry, species assumed): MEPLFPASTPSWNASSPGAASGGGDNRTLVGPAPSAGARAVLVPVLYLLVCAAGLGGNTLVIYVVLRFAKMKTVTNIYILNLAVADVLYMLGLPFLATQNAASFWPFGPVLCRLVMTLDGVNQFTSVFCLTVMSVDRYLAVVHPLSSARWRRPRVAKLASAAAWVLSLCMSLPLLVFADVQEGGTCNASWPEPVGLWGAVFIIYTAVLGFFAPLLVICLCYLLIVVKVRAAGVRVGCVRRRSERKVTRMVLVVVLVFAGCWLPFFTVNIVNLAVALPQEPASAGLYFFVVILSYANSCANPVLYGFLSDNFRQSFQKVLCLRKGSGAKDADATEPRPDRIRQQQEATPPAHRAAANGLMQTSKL

## D-phenylalanyl-L-cysteinyl-L-phenylalanyl-D-tryptophyl-L-lysyl-L-threonyl-N-[2-hydroxy-1(hydroxymethyl)propyl]-L-cysteinamide cyclic (2=>7)-disulfide [octreotide]
[1]
  Weight: promotes weight loss
[2]
  Binding to somatostatin receptor-5 (SSTR5): binds
[3]
  Δ IGF-1: least suppression
[4]
  Weight and fat mass: minimal positive effect
[5]; at Week 0 and at Week 24
  HR subjects demonstrating IGT: none
[5]; end of the study (32% before treatment)
  Percent of subjects with IGT: 73%
[6]
  Early phase of insulin secretion: inhibit
